Measured values from ChEMBL document CHEMBL2074141, “Comparison of lactate transport in astroglial cells and monocarboxylate transporter 1 (MCT 1) expressing Xenopus laevis oocytes. Expression of two different monocarboxylate transporters in astroglial cells and neurons” (J Biol Chem, 1997).

Tests used:
Assay type in all cases: functional, cell-based
Set-up in all cases: scale not given: the % may be the effect or the level left
Settings in all cases: Oocyte
[1] = target: T1, Monocarboxylate transporter 1 (Rattus norvegicus) (UniProt P53987); experiment: TP_TRANSPORTER: inhibition of lactate uptake (Lactate:0.1mM, D,L-3-Hydroxybutyrate:50mM, preincubation with aminoxyacetate) in Xenopus laevis oocytes
T1 sequence (whole entry): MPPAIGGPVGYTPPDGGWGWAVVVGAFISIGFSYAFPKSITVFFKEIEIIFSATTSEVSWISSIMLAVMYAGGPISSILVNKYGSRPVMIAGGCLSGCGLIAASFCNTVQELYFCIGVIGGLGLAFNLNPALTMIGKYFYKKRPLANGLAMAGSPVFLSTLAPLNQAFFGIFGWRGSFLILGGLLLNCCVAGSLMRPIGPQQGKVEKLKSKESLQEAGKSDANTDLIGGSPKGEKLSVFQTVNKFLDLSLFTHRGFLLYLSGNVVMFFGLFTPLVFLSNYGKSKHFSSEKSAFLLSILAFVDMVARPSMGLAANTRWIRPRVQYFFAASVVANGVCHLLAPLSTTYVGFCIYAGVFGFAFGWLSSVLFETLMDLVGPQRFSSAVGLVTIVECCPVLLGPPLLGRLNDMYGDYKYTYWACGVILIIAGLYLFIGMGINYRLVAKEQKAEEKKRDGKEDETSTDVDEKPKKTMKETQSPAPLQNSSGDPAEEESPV

[2] = target: T1, Monocarboxylate transporter 1 (Rattus norvegicus); experiment: TP_TRANSPORTER: inhibition of lactate uptake (Lactate:0.1mM, alpha-Ketoisocaproate:5mM, preincubation with aminoxyacetate) in Xenopus laevis oocytes
[3] = target: Monocarboxylate transporter 1 (Rattus norvegicus) (UniProt P53987); experiment: TP_TRANSPORTER: inhibition of lactate uptake (Lactate:0.1mM, pCMBS:1mM, preincubation with aminoxyacetate) in Xenopus laevis oocytes
[4] = target: T1, Monocarboxylate transporter 1 (Rattus norvegicus); experiment: TP_TRANSPORTER: inhibition of lactate uptake (Lactate:0.1mM, Acetoacetate:50mM, preincubation with aminoxyacetate) in Xenopus laevis oocytes
[5] = target: T1, Monocarboxylate transporter 1 (Rattus norvegicus); experiment: TP_TRANSPORTER: inhibition of lactate uptake (Lactate:0.1mM, 4-CIN:5mM, preincubation with aminoxyacetate) in Xenopus laevis oocytes
[6] = target: T1, Monocarboxylate transporter 1 (Rattus norvegicus); experiment: TP_TRANSPORTER: inhibition of lactate uptake (Lactate:0.1mM, Pyruvate:1mM, preincubation with aminoxyacetate) in Xenopus laevis oocytes

Which Activity [1] does the source give for `CC(O)CC(=O)O` (racemic) here?
The Activity was 7%.

Which Activity [2] does the source give for `CC(C)CC(=O)C(=O)O` here?
Its Activity is 13%.

For p-Chloromercuribenzenesulfonate, which Activity [3] is on record?
Its Activity is 18%.

How did the Activity [4] turn out when `CC(=O)CC(=O)O` was run?
The Activity was 13%.

For `N#C/C(=C\c1ccc(O)cc1)C(=O)O`, which Activity [5] is on record?
The Activity was 9%.

`CC(=O)C(=O)O` was tested. Which Activity [6] did it give?
The Activity was 23%.
